Here are results for 20 compounds from patent publication US12084472B2 (Ardelyx, Inc., priority 2015, dated 2024).

The target of this assay is T1, human TGR5 (Homo sapiens, UniProt Q8TDU6).
T1 construct: expressed in transfected cells; host or cells: HEK293
T1 sequence (Q8TDU6 1-330): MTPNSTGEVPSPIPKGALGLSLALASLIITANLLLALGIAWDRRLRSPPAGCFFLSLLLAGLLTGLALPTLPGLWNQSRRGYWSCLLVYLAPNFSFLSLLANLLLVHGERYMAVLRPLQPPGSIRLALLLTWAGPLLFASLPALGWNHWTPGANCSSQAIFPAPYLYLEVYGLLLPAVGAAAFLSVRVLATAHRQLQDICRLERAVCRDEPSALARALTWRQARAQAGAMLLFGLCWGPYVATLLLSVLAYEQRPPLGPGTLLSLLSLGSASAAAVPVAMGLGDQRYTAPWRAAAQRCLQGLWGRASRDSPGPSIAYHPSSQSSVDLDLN
The assay is described as follows: Cell-based TGR5 assay (cAMP generation, HTRF). Particulars: HEK293 cells stably transfected with human TGR5; cAMP by HTRF; 30 minutes at 37° C.; read-out: pEC50 Human TGR5 (converted). In a few lines:
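Read-out was HTRF detection of cAMP, converted to concentration via a standard curve and fitted (3-parameter logistic) for pEC50 and maximal response. Agonist stimulation used HEK293 cells stably transfected with human TGR5, incubated 30 min at 37° C in IBMX-containing buffer at 0.05 nM to 10 μM compound.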
(In general: Time-resolved FRET reads energy transfer from a long-lived donor to a nearby acceptor.)
As for `O=C(CCCCc1cc(Cl)c(COC2(c3cnccc3-c3ccccc3OC3CC3)CC2)cc1Cl)NCCCN1CCN(CCCNC(=O)CCCCc2cc(Cl)c(COC3(c4cnccc4-c4ccccc4OC4CC4)CC3)cc2Cl)CC1` [Compound I-101, 5-[2,5-dichloro-4-({1-[4-(2-cyclopropoxyphenyl)pyridin-3-yl]cyclopropoxy}methyl)phenyl]-N-{3-[4-(3-{5-[2,5-dichloro-4-({1-[4-(2-cyclopropoxyphenyl)pyridin-3-yl]cyclopropoxy}methyl)phenyl]pentanamido}propyl)piperazin-1-yl]propyl}pentanamide], the EC50 is 1260 to 10000 nM.

For `O=C1CCCN1CCCN(CCCCSc1ccc(Cl)c(COC2(c3cnccc3-c3ccccc3OC3CC3)CC2)c1)C(=O)[C@@H](O)[C@@H](O)[C@H](O)[C@@H](O)CO` [Compound I-515, (2S,3S,4R,5S)-N-(4-{[4-chloro-3-({1-[4-(2-cyclopropoxyphenyl)pyridin-3-yl]cyclopropoxy}methyl)phenyl]sulfanyl}butyl)-2,3,4,5,6-pentahydroxy-N-[3-(2-oxopyrrolidin-1-yl)propyl]hexanamide], the EC50 is < 100 nM.

Regarding `O=C(NCCCCCSc1ccc(Cl)c(COC2(c3cnccc3-c3ccccc3OC3CC3)CC2)c1)[C@@H](O)[C@@H](O)[C@H](O)[C@@H](O)CO` [Compound I-611, (2S,3S,4R,5S)-N-(5-{[4-chloro-3-({1-[4-(2-cyclopropoxyphenyl)pyridin-3-yl]cyclopropoxy}methyl)phenyl]sulfanyl}pentyl)-2,3,4,5,6-pentahydroxyhexanamide], the EC50 was < 100 nM.

Regarding `CC(CCCN(CCCN1CCCC1=O)C(=O)[C@@H](O)[C@@H](O)[C@H](O)[C@@H](O)CO)c1ccc(Cl)c(CNC2(c3cnccc3-c3ccccc3OC3CC3)CC2)c1` (stereo partly drawn) [Compound I-294, (2S,3S,4R,5S)-N-(4-{4-chloro-3-[({1-[4-(2-cyclopropoxyphenyl)pyridin-3-yl]cyclopropyl}amino)methyl]phenyl}pentyl)-2,3,4,5,6-pentahydroxy-N-[3-(2-oxopyrrolidin-1-yl)propyl]hexanamide], the EC50 was < 100 nM.

For the compound `CN(C[C@H](O)[C@@H](O)[C@H](O)[C@H](O)CO)C(=O)CCCCc1cc(Cl)c(COC2(c3cnccc3-c3ccccc3OC3COC3)CC2)cc1Cl` [Compound I-192, 5-{2,5-dichloro-4-[(1-{4-[2-(oxetan-3-yloxy)phenyl]pyridin-3-yl}cyclopropoxy)methyl]phenyl}-N-methyl-N-[(2S,3R,4R,5R)-2,3,4,5,6-pentahydroxyhexyl]pentanamide], the EC50 was < 100 nM.

On to `Cc1nc(C)c(CNC2(c3cnccc3-c3ccccc3OC3CC3)CC2)nc1C` [Compound I-27, 1-[4-(2-cyclopropoxyphenyl)pyridin-3-yl]-N-[(trimethylpyrazin-2-yl)methyl]cyclopropan-1-amine], for which the EC50 was 126 to 1000 nM.

Consider `CS(=O)(=O)NCCN(CCCCSc1ccc(Cl)c(CNC2(c3cnccc3-c3ccccc3OC3CC3)CC2)c1)C(=O)[C@@H](O)[C@@H](O)[C@H](O)[C@@H](O)CO` [Compound I-571, (2S,3S,4R,5S)-N-[4-({4-chloro-3-[({1-[4-(2-cyclopropoxyphenyl)pyridin-3-yl]cyclopropyl}amino)methyl]phenyl}sulfanyl)butyl]-2,3,4,5,6-pentahydroxy-N-(2-methanesulfonamidoethyl) hexanamide], for which the EC50 was < 100 nM.

On to `CN(CCCCNC(=O)N[C@@H](CO)[C@@H](O)[C@H](O)[C@H](O)CO)S(=O)(=O)c1ccc(Cl)c(CNC2(c3cnccc3-c3ccccc3OC3CC3)CC2)c1` [Compound I-472, 1-(4-{N-methyl4-chloro-3-[({1-[4-(2-cyclopropoxyphenyl)pyridin-3-yl]cyclopropyl}amino)methyl]benzenesulfonamido}butyl)-3-[(2S,3R,4S,5R)-1,3,4,5,6-pentahydroxyhexan-2-yl]urea], for which the EC50 is < 100 nM.

For `CN(CCCCNC(=O)N[C@@H](CO)[C@@H](O)[C@H](O)[C@H](O)CO)S(=O)(=O)c1cc(CNC2(c3cnccc3-c3ccccc3OC3CC3)CC2)c(Cl)cc1Cl` [Compound I-476, 1-(4-{N-methyl2,4-dichloro-5-[({1-[4-(2-cyclopropoxyphenyl)pyridin-3-yl]cyclopropyl}amino)methyl]benzenesulfonamido}butyl)-3-[(2S,3R,4S,5R)-1,3,4,5,6-pentahydroxyhexan-2-yl]urea], the EC50 was 126 to 1000 nM.

Take `CC(CCCN(CCCCO)C(=O)[C@@H](O)[C@@H](O)[C@H](O)[C@@H](O)CO)c1ccc(Cl)c(CNC2(c3cnccc3-c3ccccc3OC3CC3)CC2)c1` (stereo partly drawn) [Compound I-283, (2S,3S,4R,5S)-N-(4-{4-chloro-3-[({1-[4-(2-cyclopropoxyphenyl)pyridin-3-yl]cyclopropyl}amino)methyl]phenyl}pentyl)-2,3,4,5,6-pentahydroxy-N-(4-hydroxybutyl)hexanamide]: the EC50 is < 100 nM.

As for `Clc1ccc(C2CC2)cc1CNC1(c2cnccc2-c2ccccc2OC2CC2)CC1` [Compound I-31, N-[(2-chloro-5-cyclopropylphenyl)methyl]-1-[4-(2-cyclopropoxyphenyl)pyridin-3-yl]cyclopropan-1-amine], the EC50 was < 100 nM.

As for `CCC(=O)N(CCCCc1cc(Cl)c(COC2(c3cnccc3-c3ccccc3OC3CC3)CC2)cc1Cl)C[C@H](O)[C@@H](O)[C@H](O)[C@H](O)CO` [Compound I-73, N-{4-[2,5-dichloro-4-({1-[4-(2-cyclopropoxyphenyl)pyridin-3-yl]cyclopropoxy}methyl)phenyl]butyl}-N-[(2S,3R,4R,5R)-2,3,4,5,6-pentahydroxyhexyl]propanamide], the EC50 was < 100 nM.

`O=C(NCCCCCc1cc(Cl)c(COC2(c3cnccc3-c3ccccc3OC3CC3)CC2)cc1Cl)NC[C@H](O)[C@@H](O)[C@H](O)[C@H](O)CO` (stereo in doubt) [Compound I-225, 1-{5-[2,5-dichloro-4-({1-[4-(2-cyclopropoxyphenyl)pyridin-3-yl]cyclopropoxy}methyl)phenyl]pentyl}-3-[(2S,3R,4R,5R)-2,3,4,5,6-pentahydroxyhexyl]urea]: the EC50 was < 100 nM.

For the compound `CN(CCCCNC(=O)N[C@H](CO)[C@@H](O)[C@H](O)[C@H](O)CO)S(=O)(=O)c1ccc(Cl)c(COC2(c3cnccc3-c3ccccc3OC3CC3)CC2)c1` [Compound I-778], the EC50 is < 100 nM.

Consider `O=C([C@@H](O)[C@@H](O)[C@H](O)[C@@H](O)CO)N(CCCSc1ccc(Cl)c(COC2(c3cnccc3-c3ccccc3OC3CC3)CC2)c1)C1CCS(=O)(=O)CC1` [Compound I-556, (2S,3S,4R,5S)-N-(3-{[4-chloro-3-({-[4-(2-cyclopropoxyphenyl)pyridin-3-yl]cyclopropoxy}methyl)phenyl]sulfanyl}propyl)-N-(1,1-dioxo-1λ^6-thian-4-yl)-2,3,4,5,6-pentahydroxyhexanamide], for which the EC50 is 126 to 1000 nM.

Take `Cc1ccc(SCCCN(CCCS(C)(=O)=O)C(=O)[C@@H](O)[C@@H](O)[C@H](O)[C@@H](O)CO)cc1COC1(c2cnccc2-c2ccccc2OC2CC2)CC1` [Compound I-537, (2S,3S,4R,5S)-N-(3-{[3-({1-[4-(2-cyclopropoxyphenyl)pyridin-3-yl]cyclopropoxy}methyl)-4-methylphenyl]sulfanyl}propyl)-2,3,4,5,6-pentahydroxy-N-(3-methanesulfonylpropyl) hexanamide]: the EC50 is 126 to 1000 nM.

As for `O=C(NCC(O)C(O)C(O)C(O)CO)N[C@@H](CCCNS(=O)(=O)c1ccc(Cl)c(COC2(c3cnccc3-c3ccccc3OC3CC3)CC2)c1)C(=O)O` (stereo partly drawn) [Compound I-480, (2S)-5-[4-chloro-3-({1-[4-(2-cyclopropoxyphenyl)pyridin-3-yl]cyclopropoxy}methyl)benzenesulfonamido]-2-{[(2,3,4,5,6-pentahydroxyhexyl)carbamoyl]amino}pentanoic acid], the EC50 was < 100 nM.

Take `FC(F)(F)COc1ccccc1-c1ccncc1C1(NCc2cc(Cl)ccc2Cl)CC1` [Compound I-8, N-[(2,5-dichlorophenyl)methyl]-1-{4-[2-(2,2,2-trifluoroethoxy)phenyl]pyridin-3-yl}cyclopropan-1-amine]: the EC50 was 126 to 1000 nM.

As to `O=C(NCCCCNC(=O)NCCOCCSc1ccc(Cl)c(COC2(c3cnccc3-c3ccccc3OC3CC3)CC2)c1)NCCOCCSc1ccc(Cl)c(COC2(c3cnccc3-c3ccccc3OC3CC3)CC2)c1` [Compound I-638, 3-[2-(2-{[4-chloro-3-({1-[4-(2-cyclopropoxyphenyl)pyridin-3-yl]cyclopropoxy}methyl)phenyl]sulfanyl}ethoxy)ethyl]-1-[4-({[2-(2-{[4-chloro-3-({1-[4-(2-cyclopropoxyphenyl)pyridin-3-yl]cyclopropoxy}methyl)phenyl]sulfanyl}ethoxy)ethyl]carbamoyl}amino)butyl]urea], the EC50 is 126 to 1000 nM.

For the compound `CC(C)N(CCCCNC(=O)N[C@@H](CO)[C@@H](O)[C@H](O)[C@H](O)CO)S(=O)(=O)c1ccc(Cl)c(COC2(c3cnccc3-c3ccccc3OC3CC3)CCC2)c1` [Compound I-746, 4-chloro-3-((1-(4-(2-cyclopropoxyphenyl)pyridin-3-yl)cyclobutoxy)methyl)-N-isopropyl-N-(4-(3-((2S,3R,4S,5R)-1,3,4,5,6-pentahydroxyhexan-2-yl)ureido)butyl)benzenesulfonamide], the EC50 is < 100 nM.
